These results are taken from patent publication US8426437B2, “Pyrroloquinoline derivatives and their use as protein kinases inhibitors” (Pierre Fabre Medicament, priority 2005, dated 2013).

A word on the IC50: it is the midpoint of a concentration-inhibition curve.

Counter-ions that a name gives are not always drawn.

This experiment deals with T1, RET (Homo sapiens, UniProt P07949).
T1 construct: purchased Upstate 14-570MG
T1 sequence (P07949 29-1114): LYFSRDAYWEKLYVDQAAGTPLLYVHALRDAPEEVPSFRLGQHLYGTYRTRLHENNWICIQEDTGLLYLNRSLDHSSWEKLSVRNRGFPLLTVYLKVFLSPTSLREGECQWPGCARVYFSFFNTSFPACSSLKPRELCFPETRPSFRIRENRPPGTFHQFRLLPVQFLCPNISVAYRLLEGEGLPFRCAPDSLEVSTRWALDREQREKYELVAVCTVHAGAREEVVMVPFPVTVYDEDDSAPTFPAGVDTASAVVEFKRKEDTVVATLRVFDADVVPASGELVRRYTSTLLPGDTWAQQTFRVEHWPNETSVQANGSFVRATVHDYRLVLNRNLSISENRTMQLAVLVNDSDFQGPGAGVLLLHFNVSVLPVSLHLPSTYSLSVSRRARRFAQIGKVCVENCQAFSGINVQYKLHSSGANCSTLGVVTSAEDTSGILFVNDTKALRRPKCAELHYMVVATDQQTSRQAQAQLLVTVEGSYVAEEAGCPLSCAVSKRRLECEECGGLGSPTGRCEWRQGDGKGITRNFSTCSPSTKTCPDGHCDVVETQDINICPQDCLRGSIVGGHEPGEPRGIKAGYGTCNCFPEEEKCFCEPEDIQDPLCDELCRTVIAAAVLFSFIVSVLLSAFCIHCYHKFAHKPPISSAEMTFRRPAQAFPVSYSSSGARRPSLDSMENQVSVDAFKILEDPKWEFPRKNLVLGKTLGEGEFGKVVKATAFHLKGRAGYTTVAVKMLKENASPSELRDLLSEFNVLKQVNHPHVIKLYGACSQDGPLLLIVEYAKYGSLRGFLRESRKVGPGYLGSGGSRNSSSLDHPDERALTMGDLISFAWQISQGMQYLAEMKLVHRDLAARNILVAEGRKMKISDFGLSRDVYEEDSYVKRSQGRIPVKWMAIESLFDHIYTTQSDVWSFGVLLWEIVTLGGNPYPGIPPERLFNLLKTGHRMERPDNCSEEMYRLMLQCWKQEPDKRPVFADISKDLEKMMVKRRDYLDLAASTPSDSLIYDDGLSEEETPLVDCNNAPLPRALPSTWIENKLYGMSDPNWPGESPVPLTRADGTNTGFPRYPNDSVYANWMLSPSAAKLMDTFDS
Kind of experiment: Inhibition of RET kinase activity, recombinant RET method (Kinase-Glo). Type of experiment: biochemical. Particulars: RET 2 μg/ml, poly-EY4 substrate, 20 μM ATP, two hours at 30° C. The gist of the method: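 Recombinant RET at 2 μg/ml in 20 mM MOPS/NaOH pH 7.0, 1 mM EDTA, 5% glycerol, 0.01% Brij35, 0.1% 2-mercaptoethanol, 1 mg/ml BSA; compounds 10 nM–30 μM final.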
A general note: Kinase-Glo measures the ATP left after a reaction by luminescence.
`CCOC(=O)c1c[nH]c2c(=O)[nH]c3ccc(-c4csc(Nc5c(Cl)cccc5Cl)n4)cc3c12` [Compound 274, 8-[2-(2,6-Dichlorophenylamino)-thiazol-4-yl]-4-oxo-4,5-dihydro-3H-pyrrolo[2,3-c]quinoline-1-ethyl carboxylate]: the IC50 was in the range of 10000 to 100000 nM.

Consider `CCOC(=O)c1c[nH]c2c(=O)[nH]c3ccc(-c4csc(C)n4)cc3c12` [Compound 278, 8-(2-Methyl-thiazol-4-yl)-4-oxo-4,5-dihydro-3H-pyrrolo[2,3-c]quinoline-1-ethyl carboxylate], for which the half-maximal inhibitory concentration (IC50) is 1000 to 10000 nM.

On to `CCOC(=O)c1c[nH]c2c(=O)[nH]c3ccc(S(=O)(=O)N(C)c4ccc(F)cc4)cc3c12` [Compound 13, 8-[(4-Fluorophenyl)-N-methyl-sulfamoyl)-4-oxo-4,5-dihydro-3H-pyrrolo[2,3-c]quinoline-1-ethyl carboxylate], for which the IC50 is below 100 nM.

With `C#CCN(CCN(C(=O)OC(C)(C)C)C(C)C)S(=O)(=O)c1ccc2[nH]c(=O)c3[nH]cc(C(=O)OCCC)c3c2c1` [Compound 159, 8-{[2-(tert-Butoxycarbonyl-isopropyl-amino)-ethyl]-prop-2-ynyl-sulfamoyl}-4-oxo-4,5-dihydro-3H-pyrrolo[2,3-c]quinoline-1-propyl carboxylate], the half-maximal inhibitory concentration (IC50) lay within 1000 to 10000 nM.

With `CCOC(=O)c1c[nH]c2c(=O)[nH]c3ccc(NS(=O)(=O)c4ccccc4Cl)cc3c12` [Compound 42, 8-(2-Chloro-benzenesulfonylamino)-4-oxo-4,5-dihydro-3H-pyrrolo[2,3-c]quinoline-1-ethyl carboxylate], the 50% inhibitory concentration (IC50) lay within 10000 to 100000 nM.

Turning to `CCOC(=O)c1c[nH]c2c(=O)[nH]c3c([N+](=O)[O-])cccc3c12` [Compound 67, 6-Nitro-4-oxo-4,5-dihydro-3H-pyrrolo[2,3-c]quinoline-1-ethyl carboxylate], the IC50 fell in the range of 10000 to 100000 nM.

`CCCOC(=O)c1c[nH]c2c(=O)[nH]c3ccc(-c4cccc(S(C)(=O)=O)c4)cc3c12` [Compound 254, 8-(3-Methanesulfonyl-phenyl)-4-oxo-4,5-dihydro-3H-pyrrolo[2,3-c]quinoline-1-propyl carboxylate]: the IC50 lay in the range of 100 to 1000 nM.

`CCOC(=O)c1c[nH]c2c(=O)[nH]c3ccc(NS(=O)(=O)c4ccc(C(C)=O)cc4)cc3c12` [Compound 55, 8-(4-Acetyl-benzenesulfonylamino)-4-oxo-4,5-dihydro-3H-pyrrolo[2,3-c]quinoline-1-ethyl carboxylate]: the IC50 lay in the range of 1000 to 10000 nM.

In the case of `COC(=O)c1c[nH]c2c(=O)[nH]c3ccc(S(=O)(=O)NN4CC5CCCC5C4)cc3c12` (stereo not shown) [Compound 192, 8-(Hexahydro-cyclopenta[c]pyrrol-2-ylsulfamoyl)-4-oxo-4,5-dihydro-3H-pyrrolo[2,3-c]quinoline-1-methyl carboxylate], the half-inhibitory concentration (IC50) fell in the range of 1000 to 10000 nM.

Take `CC(=O)c1c[nH]c2c(=O)[nH]c3ccccc3c12` [Compound 77, 1-Acetyl-3,5-dihydro-pyrrolo[2,3-c]quinolin-4-one]: the IC50 is 10000 to 100000 nM.

`CCOC(=O)c1c[nH]c2c(=O)[nH]c3ccc(NS(=O)(=O)c4ccc(Br)cc4)cc3c12` [Compound 46, 8-(4-Bromo-benzenesulfonylamino)-4-oxo-4,5-dihydro-3H-pyrrolo[2,3-c]quinoline-1-ethyl carboxylate]: the IC50 was in the range of 100 to 1000 nM.

For the molecule `CCCOC(=O)c1c[nH]c2c(=O)[nH]c3cc(F)c(S(=O)(=O)N(C)C4CC4)cc3c12` [Compound 187, 8-(Cyclopropyl-methyl-sulfamoyl)-7-fluoro-4-oxo-4,5-dihydro-3H-pyrrolo[2,3-c]quinoline-1-propyl carboxylate], the IC50 fell in the range of 100 to 1000 nM.

`CCOC(=O)c1c[nH]c2c(=O)[nH]c3ccc(S(=O)(=O)N(C)Cc4ccccc4)cc3c12` [Compound 24, 8-(Benzyl-methyl-sulfamoyl)-4-oxo-4,5-dihydro-3H-pyrrolo[2,3-c]quinoline-1-ethyl carboxylate]: the 50% inhibitory concentration (IC50) is 100 to 1000 nM.

`CCOC(=O)c1c[nH]c2c(=O)[nH]c3ccc(S(=O)(=O)Nc4cccc(O)c4)cc3c12` [Compound 15, 8-(3-Hydroxy-phenylsulfamoyl)-4-oxo-4,5-dihydro-3H-pyrrolo[2,3-c]quinoline-1-ethyl carboxylate]: the IC50 lay within 100 to 1000 nM.

`CCCNC(=O)c1c[nH]c2c(=O)[nH]c3ccc(S(=O)(=O)N(C)C)cc3c12` [Compound 109, N-Propyl-8-dimethylsulfamoyl-4-oxo-4,5-dihydro-3H-pyrrolo[2,3-c]quinoline-1-carboxamide]: the IC50 was 10000 to 100000 nM.

Turning to `O=C(NCCc1c[nH]c2ccccc12)c1c[nH]c2c(=O)[nH]c3ccccc3c12` [Compound 84, N-[2-(1H-Indol-3-yl)-ethyl]-4-oxo-4,5-dihydro-3H-pyrrolo[2,3-c]quinoline-1-carboxamide], the concentration for half-maximal inhibition (IC50) lay in the range of 10000 to 100000 nM.

As to `CCOC(=O)c1c[nH]c2c(=O)[nH]c3ccc(CCC(C)(C)O)cc3c12` [Compound 208, 8-(3-Hydroxy-3-methyl-butyl)-4-oxo-4,5-dihydro-3H-pyrrolo[2,3-c]quinoline-1-ethyl carboxylate], the IC50 is 100 to 1000 nM.

With `CCOC(=O)c1c[nH]c2c(=O)[nH]c3ccc(-c4ccc5c(c4)OCCO5)cc3c12` [Compound 248, 8-(2,3-Dihydro-benzo[1,4]dioxin-6-yl)-4-oxo-4,5-dihydro-3H-pyrrolo[2,3-c]quinoline-1-ethyl carboxylate], the IC50 is 100 to 1000 nM.

In the case of `CCOC(=O)c1c[nH]c2c(=O)[nH]c3ccc(F)cc3c12` [Compound 99, 8-Fluoro-4-oxo-4,5-dihydro-3H-pyrrolo[2,3-c]quinoline-1-ethyl carboxylate], the 50% inhibitory concentration (IC50) lay within 10000 to 100000 nM.

Consider `CCCOC(=O)c1c[nH]c2c(=O)[nH]c3ccc(S(=O)(=O)N(C)C4CC4)cc3c12` [Compound 125, 8-(Cyclopropyl-methyl-sulfamoyl)-4-oxo-4,5-dihydro-3H-pyrrolo[2,3-c]quinoline-1-propyl carboxylate], for which the IC50 was below 100 nM.

Turning to `CCN(CC)CCOC(=O)c1c[nH]c2c(=O)[nH]c3ccc(F)cc3c12` [Compound 100, 8-Fluoro-4-oxo-4,5-dihydro-3H-pyrrolo[2,3-c]quinoline-1-carboxylate of 2-diethylaminoethyl], the concentration for half-maximal inhibition (IC50) is 10000 to 100000 nM.

Regarding `CCOC(=O)c1c[nH]c2c(=O)[nH]c3ccc(-c4ccccc4Cl)cc3c12` [Compound 229, 8-(2-Chlorophenyl)-4-oxo-4,5-dihydro-3H-pyrrolo[2,3-c]quinoline-1-ethyl carboxylate], the 50% inhibitory concentration (IC50) lay within 100 to 1000 nM.

`CS(=O)(=O)c1cccc(-c2ccc3[nH]c(=O)c4[nH]cc(C(=O)OC5CCCC5)c4c3c2)c1` [Compound 256, 8-(3-Methanesulfonyl-phenyl)-4-oxo-4,5-dihydro-3H-pyrrolo[2,3-c]quinoline-1-cyclopentyl carboxylate]: the IC50 lay within 100 to 1000 nM.

Take `C#CCN(CCNC)S(=O)(=O)c1ccc2[nH]c(=O)c3[nH]cc(C(=O)OCCC)c3c2c1` [Compound 156, 8-[(2-Methylamino-ethyl)-prop-2-ynyl-sulfamoyl]-4-oxo-4,5-dihydro-3H-pyrrolo[2,3-c]quinoline-1-propyl carboxylate hydrochloride]: the concentration for half-maximal inhibition (IC50) is below 100 nM.

As to `CC(C)(C)OC(=O)N[C@H]1CCN(S(=O)(=O)c2ccc3[nH]c(=O)c4[nH]cc(C(=O)O)c4c3c2)C1` [Compound 165, (S)-8-(3-tert-Butoxycarbonylamino-pyrrolidine-1-sulfonyl)-4-oxo-4,5-dihydro-3H-pyrrolo[2,3-c]quinoline-1-carboxylic acid], the IC50 was 10000 to 100000 nM.

With `CCCOC(=O)c1c[nH]c2c(=O)[nH]c3ccc(S(=O)(=O)N(C)CCC#N)cc3c12` [Compound 126, 8-[(2-Cyano-ethyl)-methyl-sulfamoyl]-4-oxo-4,5-dihydro-3H-pyrrolo[2,3-c]quinoline-1-propyl carboxylate], the IC50 was 100 to 1000 nM.

Regarding `CCOC(=O)c1c[nH]c2c(=O)[nH]c3ccc(C#Cc4ccccc4)cc3c12` [Compound 201, 4-Oxo-8-phenylethynyl-4,5-dihydro-3H-pyrrolo[2,3-c]quinoline-1-ethyl carboxylate], the 50% inhibitory concentration (IC50) was in the range of 1000 to 10000 nM.

As to `O=C(OC1CCCC1)c1c[nH]c2c(=O)[nH]c3ccc(I)cc3c12` [Compound 211, 8-Iodo-4-oxo-4,5-dihydro-3H-pyrrolo[2,3-c]quinoline-1-cyclopentyl carboxylate], the IC50 was in the range of 1000 to 10000 nM.

For the molecule `CCOC(=O)c1c[nH]c2c(=O)[nH]c3ccc(-c4ccc5c(ccn5C(=O)OC(C)(C)C)c4)cc3c12` [Compound 253, 8-(1-tert-Butoxycarbonyl-1H-indol-5-yl)-4-oxo-4,5-dihydro-3H-pyrrolo[2,3-c]quinoline-1-ethyl carboxylate], the half-inhibitory concentration (IC50) was in the range of 1000 to 10000 nM.

Take `CCOC(=O)c1c[nH]c2c(=O)[nH]c3ccc(-c4cc(S(C)(=O)=O)ccc4N)cc3c12` [Compound 251, 8-(2-Amino-5-methanesulfonyl-phenyl)-4-oxo-4,5-dihydro-3H-pyrrolo[2,3-c]quinoline-1-ethyl carboxylate]: the 50% inhibitory concentration (IC50) lay in the range of 100 to 1000 nM.

Turning to `CCOC(=O)c1c[nH]c2c(=O)[nH]c3ccc(-c4ccc(C#N)cc4)cc3c12` [Compound 247, 8-(4-Cyano-phenyl)-4-oxo-4,5-dihydro-3H-pyrrolo[2,3-c]quinoline-1-ethyl carboxylate], the IC50 fell in the range of 10000 to 100000 nM.

For the molecule `CCOC(=O)c1c[nH]c2c(=O)[nH]c3ccc(S(=O)(=O)Nc4ccc(N5CCOCC5)cc4)cc3c12` [Compound 22, 8-(4-Morpholin-4-yl-phenylsulfamoyl)-4-oxo-4,5-dihydro-3H-pyrrolo[2,3-c]quinoline-1-ethyl carboxylate], the IC50 was 10000 to 100000 nM.

Turning to `CCCOC(=O)c1c[nH]c2c(=O)[nH]c3ccc(S(=O)(=O)N(C)CCSC)cc3c12` [Compound 135, 8-[Methyl-(2-methylsulfanyl-ethyl)-sulfamoyl]-4-oxo-4,5-dihydro-3H-pyrrolo[2,3-c]quinoline-1-propyl carboxylate], the IC50 lay within 100 to 1000 nM.

As for `C#CCN(C[C@@H]1CCCN1C)S(=O)(=O)c1ccc2[nH]c(=O)c3[nH]cc(C(=O)OCCC)c3c2c1` [Compound 151, (S)-8-[(1-Methyl-pyrrolidin-2-ylmethyl)-prop-2-ynyl-sulfamoyl]-4-oxo-4,5-dihydro-3H-pyrrolo[2,3-c]quinoline-1-propyl carboxylate], the concentration for half-maximal inhibition (IC50) is 100 to 1000 nM.
